In patent US11427783B2, “Perfuming compositions” (Firmenich SA, priority 2016, dated 2022):
Like-named read-outs stand apart in the source and are kept apart here.

Experiment: Volatility of perfuming compounds in air
Format: physicochemical
[1] = Table 6, perfuming compounds having a fruity note
[2] = Table 9, perfuming compounds having a gourmand note
[3] = Table 10, perfuming compounds having a woody note
[4] = Table 8, perfuming compounds having a sweet note
[5] = Table 5, perfuming compounds having a green note

SMILES | Volatility (μg/l air) [1] [μg/l air] | Volatility (μg/l air) [2] [μg/l air] | Volatility (μg/l air) [4] [μg/l air] | further results
CCCCC1CCC(=O)O1 (racemic) [(+−)-4-OCTANOLIDE] | 108.41 | 108.41 | – | –
CC1=CCC(C(C)(C)O)CC1 (racemic) [(+−)-ALPHA-TERPINEOL] | – | – | – | Volatility (μg/l air) [3]: 172.78 μg/l air
CCCCC[C@@H]1OC(=O)C[C@H]1C (racemic) [(+−)-TRANS-3-METHYL-4-NONANOLIDE] | 21.05 | 21.05 | 21.05 | –
CCC(=O)OCC(C)(C)OC(C)C1CCCC(C)(C)C1 (single isomer, unassigned; (+)) | 4.39 | – | – | –
COC(OC)C(C)c1ccccc1 (stereo not drawn) [1,1-DIMETHOXY-2-PHENYLPROPANE] | – | – | – | Volatility [5]: 376.94 μg/l air
CCCC(=O)OC(C)(C)Cc1ccccc1 [1,1-DIMETHYL-2-PHENYLETHYL BUTANOATE] | 34.65 | 34.65 | 34.65 | –
COc1ccc(C(C)=O)cc1 [1-(4-METHOXYPHENYL)-1-ETHANONE”] | – | – | – | Volatility [5]: 50.21 μg/l air
CCCCCCCCCCO [1-DECANOL] | – | – | – | Volatility [5]: 31.90 μg/l air
CCCOC(C)OCCc1ccccc1 (stereo not drawn) [1-PHENYL-2-(1-PROPOXYETHOXY)ETHANE] | – | – | – | Volatility [5]: 59.63 μg/l air
CCCCCCO [1-hexanol] | – | – | – | Volatility [5]: 2070.00 μg/l air
CC(=O)c1ccccc1 [1-phenylethanone] | – | – | 1728.98 | –
Cc1cnc(C)c(C)n1 [2,3,5-TRIMETHYLPYRAZINE] | – | – | 7897.31 | –
COc1cccc(OC)c1O [2,6-DIMETHOXYPHENOL] | – | 19.23 | 19.23 | –
c1ccc(CCCc2ccccn2)cc1 [2-(3-PHENYLPROPYL)PYRIDINE] | – | – | – | Volatility [5]: 3.83 μg/l air
Cc1ncsc1CCO [2-(4-METHYL-1,3-THIAZOL-5-YL)-1-ETHANOL] | – | – | 2.36 | –
O=c1ccc2ccccc2o1 [2-CHROMENONE] | – | 0.51 | 0.51 | –
CC(=O)OCCC1CCCCC1 [2-CYCLOHEXYLETHYL ACETATE] | – | 489.45 | 489.45 | –
CCc1occc(=O)c1O [2-ETHYL-3-HYDROXY-4(4H)-PYRANONE] | 48.86 | – | 48.86 | –
SCc1ccco1 [2-FURANMETHANETHIOL] | – | – | 29677.31 | –
CC1=C(O)C(=O)CC1 [2-HYDROXY-3-METHYL-2-CYCLOPENTEN-1-ONE] | – | – | 396.50 | –
CC(C)Cc1ccc2ccccc2n1 [2-ISOBUTYLQUINOLINE] | – | – | 8.73 | –
COc1cc(C)ccc1O [2-METHOXY-4-METHYLPHENOL] | – | – | 306.61 | –

SMILES | Volatility (μg/l air) [1] [μg/l air] | Volatility (μg/l air) [2] [μg/l air] | Volatility (μg/l air) [4] [μg/l air] | further results
CCCC1CCC(O)C(OC)C1 (stereo not drawn) [2-METHOXY-4-PROPYL-1-CYCLOHEXANOL] | – | – | – | Volatility: 189.74 μg/l air
CCCC(=NO)C(C)C [2-METHYL-3-HEXANONE OXIME] | – | – | – | Volatility [5]: 687.75 μg/l air
OCCc1ccccc1 [2-PHENYLETHANOL] | – | 159.75 | 159.75 | –
CC(=O)OCCc1ccccc1 [2-PHENYLETHYL ACETATE] | – | 201.26 | 201.26 | –
CC(C)C(=O)OCCc1ccccc1 [2-PHENYLETHYL ISOBUTYRATE] | 67.38 | 67.38 | 67.38 | –
CC(C)(C)C(=O)OCCc1ccccc1 [2-PHENYLETHYL PIVALATE] | 71.44 | 71.44 | 71.44 | –
COc1ccc(OC)c(C(C)(C)C)c1 [2-TERT-BUTYL-1,4-DIMETHOXYBENZENE] | – | – | – | Volatility (μg/l air) [3]: 82.95 μg/l air
CC(=O)OCCC(C)CCC=C(C)C (stereo not drawn) [3,7-DIMETHYL-6-OCTENYL ACETATE] | 128.72 | – | – | –
CCCC=C1OC(=O)c2ccccc21 [3-BUTYLIDENE-1-BENZO[C]FURANONE] | – | 14.37 | 14.37 | –
Cc1occc(=O)c1O [3-HYDROXY-2-METHYL-4(4H)-PYRANONE] | 92.42 | – | 92.42 | –
CC(C)CCOCCc1ccccc1 [3-METHYLBUTYL 2-PHENYLETHYL ETHER] | 110.11 | 110.11 | 110.11 | –
CC(=O)CCc1ccc(O)cc1 [4-(4-HYDROXY-1-PHENYL)-2-BUTANONE] | 0.36 | – | – | –
COc1ccc(CCC(C)=O)cc1 [4-(4-METHOXYPHENYL)-2-BUTANONE] | 5.58 | 5.58 | 5.58 | –
COc1ccc(C=O)cc1 [4-METHOXYBENZALDEHYDE] | – | – | – | Volatility [5]: 98.47 μg/l air
COc1ccc(COC(C)=O)cc1 [4-METHOXYBENZYL ACETATE] | 17.59 | – | – | –
CC=CC(=O)C(C)CC (stereo not drawn) [5-METHYL-2-HEPTEN-4-ONE] | – | – | 5525.83 | –
CCCCC1CCCC(=O)O1 (stereo not drawn) [5-NONANOLIDE] | 23.87 | 23.87 | 23.87 | –
COCCc1ccccc1 [(2-METHOXYETHYL)BENZENE] | – | – | – | Volatility [5]: 1239.07 μg/l air
CCC/C=C/CO [(E)-2-HEXEN-1-OL] | – | – | – | Volatility [5]: 3752.17 μg/l air
CC(=O)OC/C=C(\C)CCC=C(C)C [(E)-3,7-DIMETHYL-2,6-OCTADIENYL ACETATE] | 85.23 | – | – | –
O=C/C=C/c1ccccc1 [(E)-3-PHENYL-2-PROPENAL] | – | – | – | Volatility (μg/l air) [3]: 70.14 μg/l air
